One assay deals with T1, human TRPA1 channel (Homo sapiens, UniProt O75762).
T1 construct: expressed in transfected cells; host or cells: CHO cells
The experiment in a line: ScreenPatch assay (IonWorks Barracuda), agonist mode, TRPA1 expressed in CHO cells. It counts as cell-based. As to conditions: for EC50: read-out: EC50, CBC CRC. On the procedure: Formulations for pain management were tested for effects on the human TRPA1 channel, expressed in mammalian cells using the ScreenPatch® assay (IonWorks™ Barracuda Based Assay): agonist mode. The data presented confirming a synergistic effect of cannabinoids (CBD:THC:CBC) at the ion channel level.
Test Articles. The test articles, also referenced herein as test formulations, were evaluated in an 8-point concentration-response format (4 replicate wells/concentration, Table 4A & Table 4B). The test articles were dissolved and initially serially diluted in dimethyl sulfoxide (DMSO). The final dilution was made in extracellular solution. The final DMSO concentration was 0.6% (v/v).
Positive Control Treatment Groups. Stock solutions of positive control articles were prepared in batches, aliquoted for individual use. The positive control test solutions were prepared fresh on the day of experiment. The final DMSO concentration was 0.6% (v/v). […] Reference antagonist, ruthenium red (0-10 μM), was used for both TRPA1.
Test System: TRPA1 ionotropic receptors expressed in CHO cells.
Test Platform: Ionworks Barracuda™
Electrophysiological Procedures. Intracellular solution (mM): 50 mM CsCl, 90 mM CsF, 2 mM MgCl2, 5 mM EGTA, 10 mM HEPES. Adjusted to pH 7.2 with CsOH. This solution was prepared in batches and stored at room temperature. In preparation for a recording session, the intracellular solution was loaded into the intracellular compartment of the PPC planar electrode.
Extracellular solution, HB-PS (composition in mM): NaCl, 137; KCl, 1.0; MgCl2, 2; CaCl2, 2; HEPES, 10; Glucose, 10; pH adjusted to 7.4 with NaOH (refrigerated until use). Holding potential: −70 mV, potential during agonist/antagonist application: −70 mV.
Recording procedure. Extracellular buffer was loaded into the PPC plate wells (11 μL per well). Cell suspension was pipetted into the wells (9 μL per well) of the PPC planar electrode.
Whole-cell recording configuration was established via patch perforation with membrane currents recorded by on-board patch clamp amplifiers.
Single application (scan) protocol was used.
Test Article Administration. The application consisted of the addition of 20 μL of 2× concentrated test article solution at 10 μL/s (2 second total application time).
TRPA1 Positive Control—Agonist.
Positive Control—Antagonist. 0-10 μM Ruthenium Red (8 concentrations, 4 replicates, half log scale).
(The patch-clamp technique gives a direct electrical read-out from membranes.)

A further assay deals with CB2 receptors (Homo sapiens, UniProt P34972). As to conditions: Shinjyo N 2013; cited from earlier work.
A further assay concerns the target CB1 receptors (Homo sapiens, UniProt P21554). As to conditions: Shinjyo N 2013; cited from earlier work.
[1] abbreviates: CRC of the article alone, % of 3000 μM Mustard Oil.
The mark [2] stands for this setting: CHO, CRC of the article alone, % of 3000 μM Mustard Oil, read-out: EMAX.
Where [3] appears, read: in presence of 0.1 μM CBD + THC.
Setting [4] is: in presence of 0.3 μM CBD + THC.

Where “and” joins values, the source holds several entries; their conditions need not be identical. Equal entries are not always repeated. Where two headings read alike, the source gives them in different places.

Consider four compounds from patent US20210212984A1, “FORMULATION FOR PAIN MANAGEMENT” (Zyus Life Sciences Inc., priority 2019, published 2021).

T1 sequence (O75762 whole entry): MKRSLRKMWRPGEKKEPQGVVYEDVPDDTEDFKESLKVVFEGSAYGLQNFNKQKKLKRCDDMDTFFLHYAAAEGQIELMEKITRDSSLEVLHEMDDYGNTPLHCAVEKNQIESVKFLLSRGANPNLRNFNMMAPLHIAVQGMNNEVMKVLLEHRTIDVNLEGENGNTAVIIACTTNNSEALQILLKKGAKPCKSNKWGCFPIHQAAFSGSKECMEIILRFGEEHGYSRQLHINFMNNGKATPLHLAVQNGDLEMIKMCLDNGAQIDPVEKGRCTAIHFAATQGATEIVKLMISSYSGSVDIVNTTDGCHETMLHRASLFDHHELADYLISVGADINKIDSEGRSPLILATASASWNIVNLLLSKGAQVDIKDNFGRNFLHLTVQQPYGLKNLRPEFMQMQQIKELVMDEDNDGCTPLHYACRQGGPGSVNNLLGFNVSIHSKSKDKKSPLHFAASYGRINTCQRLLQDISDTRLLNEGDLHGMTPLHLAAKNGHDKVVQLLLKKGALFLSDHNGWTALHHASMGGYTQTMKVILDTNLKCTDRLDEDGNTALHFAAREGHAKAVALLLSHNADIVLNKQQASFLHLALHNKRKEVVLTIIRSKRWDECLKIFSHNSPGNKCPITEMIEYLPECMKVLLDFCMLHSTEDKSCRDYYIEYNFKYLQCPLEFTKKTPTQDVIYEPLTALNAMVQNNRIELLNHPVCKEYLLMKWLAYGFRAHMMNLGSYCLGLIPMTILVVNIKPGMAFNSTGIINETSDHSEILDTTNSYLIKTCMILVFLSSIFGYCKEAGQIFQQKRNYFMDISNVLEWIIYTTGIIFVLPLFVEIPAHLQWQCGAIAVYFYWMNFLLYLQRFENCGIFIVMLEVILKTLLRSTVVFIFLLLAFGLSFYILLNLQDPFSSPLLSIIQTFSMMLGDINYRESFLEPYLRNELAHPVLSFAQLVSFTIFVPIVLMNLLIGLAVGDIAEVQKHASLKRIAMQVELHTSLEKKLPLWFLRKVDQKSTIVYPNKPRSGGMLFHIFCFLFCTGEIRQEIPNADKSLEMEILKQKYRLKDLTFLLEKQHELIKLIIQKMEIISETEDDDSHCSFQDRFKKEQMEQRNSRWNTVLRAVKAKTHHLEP
CB2 receptors, sequence (P34972 whole entry): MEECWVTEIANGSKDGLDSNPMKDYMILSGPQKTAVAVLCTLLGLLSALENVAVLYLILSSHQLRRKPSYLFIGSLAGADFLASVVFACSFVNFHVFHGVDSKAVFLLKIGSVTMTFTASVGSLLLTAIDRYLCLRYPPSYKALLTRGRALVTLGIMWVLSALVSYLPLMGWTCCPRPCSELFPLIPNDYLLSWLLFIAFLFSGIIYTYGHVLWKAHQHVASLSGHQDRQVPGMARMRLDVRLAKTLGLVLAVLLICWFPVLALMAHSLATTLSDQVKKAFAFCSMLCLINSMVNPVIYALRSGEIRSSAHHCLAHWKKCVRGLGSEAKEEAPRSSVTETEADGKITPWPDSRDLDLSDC
CB1 receptors, sequence (P21554 whole entry): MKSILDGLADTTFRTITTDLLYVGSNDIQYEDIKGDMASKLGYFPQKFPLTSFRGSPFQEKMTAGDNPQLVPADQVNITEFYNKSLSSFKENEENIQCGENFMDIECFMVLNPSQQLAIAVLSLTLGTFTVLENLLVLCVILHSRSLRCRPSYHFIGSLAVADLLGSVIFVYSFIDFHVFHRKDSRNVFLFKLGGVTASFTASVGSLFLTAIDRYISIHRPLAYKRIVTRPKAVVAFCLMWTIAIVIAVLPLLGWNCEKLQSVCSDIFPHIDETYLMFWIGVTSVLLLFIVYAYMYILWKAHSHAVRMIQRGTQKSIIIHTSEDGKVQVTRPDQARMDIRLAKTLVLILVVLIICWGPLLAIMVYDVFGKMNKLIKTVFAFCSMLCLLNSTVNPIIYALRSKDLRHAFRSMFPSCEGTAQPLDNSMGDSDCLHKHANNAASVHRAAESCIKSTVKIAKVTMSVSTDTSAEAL

A word on the Emax: it is the greatest response seen or fitted, relative to the assay's reference. `C=CCN=C=S` [Mustard Oil, Allyl isothiocyanate, reference compound]: the Emax at 3000 µM at human TRPA1 channel (CHO, CRC of the article alone, % of 3000 μM Mustard Oil) was found to be 100%. At human TRPA1 channel (CRC of the article alone), the “Hill Slope” value is −1.91. The EMIN at human TRPA1 channel (setting [1]) turned out to be 1.01%.

Broadly, the EC50 is the concentration at which the effect is half-maximal. In general, Ki refers to the dissociation constant of the complex between target and ligand, obtained from inhibition or displacement. For `CCCCCc1cc(O)c2c(c1)OC(C)(CCC=C(C)C)C=C2` (stereo not shown) [CBC, cannabichromene], the “Agonist activity at TRPA1 receptors (in words)” value on human TRPA1 channel was “weak partial agonist activity”. The Emax on human TRPA1 channel (setting [2]) is about 10%; on human TRPA1 channel (CHO, at near threshold activation by CBD+THC mixture (1 μM each), n=4, read-out: Efficacy (EMAX) of CBC), 16.2 ± 1.3%; at human TRPA1 channel (CHO, in presence of 0.1 μM CBD + THC, % of 3000 μM Mustard Oil, read-out: EMAX, CBC CRC), 10.1%; at human TRPA1 channel (CHO, in presence of 0.3 μM CBD + THC, % of 3000 μM Mustard Oil, read-out: EMAX, CBC CRC), 13.1%; on human TRPA1 channel (CHO, in presence of 1 μM CBD + THC, % of 3000 μM Mustard Oil, read-out: EMAX, CBC CRC) it was 17.1%; on human TRPA1 channel (CHO, in presence of 3 μM CBD + THC, % of 3000 μM Mustard Oil, read-out: EMAX, CBC CRC), 30.7%. The Emax on human TRPA1 channel (CHO, in presence of 10 μM CBD + THC, % of 3000 μM Mustard Oil, read-out: EMAX, CBC CRC) was 53.2%; at human TRPA1 channel (CHO, in presence of 30 μM CBD + THC, % of 3000 μM Mustard Oil, read-out: EMAX, CBC CRC) it was 60.8%; on human TRPA1 channel (CHO, in presence of 100 μM CBD + THC, % of 3000 μM Mustard Oil, read-out: EMAX, CBC CRC), 58.5%; at human TRPA1 channel (CHO, in presence of 300 μM CBD + THC, % of 3000 μM Mustard Oil, read-out: EMAX, CBC CRC) it was 37.2%; on human TRPA1 channel (setting [1]), 10.3±1.9% and 10.31%. Further, the “Hill Slope” value on human TRPA1 channel (CRC of the article alone) is given as −0.96. Moreover, the EMIN at human TRPA1 channel (setting [1]) was found to be 0.86%. Moreover, the “Efficacy (EMAX) of CBC” value on human TRPA1 channel (at near threshold activation by CBD+THC mixture (1 μM each), n=4) turned out to be 16±1%. The “Hill Slope, CBC CRC” value at human TRPA1 channel (setting [3]) is −3.56; at human TRPA1 channel (setting [4]), −1.00; at human TRPA1 channel (in presence of 1 μM CBD + THC), −1.00. Moreover, the “EMIN, CBC CRC” value on human TRPA1 channel (in presence of 0.1 μM CBD + THC, % of 3000 μM Mustard Oil) is given as 0.92%; at human TRPA1 channel (in presence of 0.3 μM CBD + THC, % of 3000 μM Mustard Oil), 1.42%; at human TRPA1 channel (in presence of 1 μM CBD + THC, % of 3000 μM Mustard Oil) it was 2.40%; on human TRPA1 channel (in presence of 3 μM CBD + THC, % of 3000 μM Mustard Oil), 15.03%; on human TRPA1 channel (in presence of 10 μM CBD + THC, % of 3000 μM Mustard Oil) it was 42.93%; at human TRPA1 channel (in presence of 30 μM CBD + THC, % of 3000 μM Mustard Oil), 47.70%. Besides, the “EMIN, CBC CRC” value is given as 37.89% at human TRPA1 channel (in presence of 100 μM CBD + THC, % of 3000 μM Mustard Oil) and 29.27% at human TRPA1 channel (in presence of 300 μM CBD + THC, % of 3000 μM Mustard Oil). Besides, the EC50 at human TRPA1 channel (setting [3]) amounted to 54.5 µM; at human TRPA1 channel (setting [4]) it was 64.1 µM; at human TRPA1 channel (in presence of 1 μM CBD + THC), 26 µM. Moreover, on CB2 receptors, the Ki is about 0.1 µM. Further, the “concentrations at which it binds to CB1 receptors” value at CB1 receptors is recorded as “higher than 1 micromolar”.

A word on the IC50: it is the concentration at which inhibition is half-maximal. As to `N.N.N.N.N.N.N.N.N.N.N.N.N.N.[Cl-].[Cl-].[Cl-].[Cl-].[Cl-].[Cl-].[O-2].[O-2].[Ru+3].[Ru+3].[Ru+4]` [Ruthenium Red, reference compound], the “Hill Slope” value on human TRPA1 channel (CRC of the article alone) is recorded as 0.85. Further, at human TRPA1 channel (setting [1]), the EMIN was 0.00% and the Emax was 47.50%. Moreover, the IC50 at human TRPA1 channel (inhibition of TRPA1 receptors, CRC 0-10 μM (footnote: IC50 is shown)) was 1.79 µM.

For the compound `CO` [Methanol], the Emax at human TRPA1 channel (setting [2]) is 3.97%. Also, the EMIN on human TRPA1 channel (setting [1]) was 0.95%.
